What was measured:
fungi = conditions: cited from earlier work
[1] = cited from earlier work; for Solubility in water: water (cold water for sorbic acid)
[2] = mean body weight of 60 kg
Experimental: Sorbic acid and its salts are accordingly permitted for food use by international committees and permitted worldwide as a preservative for direct addition to foods. The internationally established tolerable daily dose for humans of up to 25 mg/kg of body weight corresponds to a tolerable consumption by adults of up to 1.5 g per day (at a mean body weight of 60 kg).

[3] = humans; internationally established; cited from earlier work
wood-damaging fungi = conditions: cited from earlier work

Compound: C/C=C/C=C/C(=O)[O-].[Na+] [sodium sorbate]
- Growth of fungi on treated bamboo (fungi; after a few days): growth of fungi and poorer results than the dehydroacetic acid
- Activity depending on pH (fungi; bamboo): only active in these studies at a pH of 3.0

Compound: C/C=C/C=C/C(=O)O [Sorbic acid, trans, trans-2,4-hexadienoic acid]
- Solubility in liquid alcohols ([1]; liquid alcohols): good
- Solubility in water [1]: dissolves only sparingly in cold water
- Tolerable consumption by adults [2]: up to 1.5 g per day
- Tolerable daily dose [3]: up to 25 mg/kg of body weight

Compound: C/C=C/C=C/C(=O)[O-].[K+] [Potassium sorbate]
- Solubility in water [1]: dissolves very readily in water

Compound: C/C=C/C=C/C(=O)[O-].C/C=C/C=C/C(=O)[O-].[Zn+2] [zinc salt of sorbic acid]
- Activity as wood preservative (wood-damaging fungi): inactive
